According to PubChem BioAssay (NCI):
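Exposure lasted 48 hours, with cells grown in 96-well plates and compounds tested at five concentrations. GI50 = concentration required for 50% inhibition of growth. TGI denotes the concentration required for complete inhibition of growth.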

Assays:
Test in all cases: DTP human tumour cell line panel, 48 h
[1] = test system: 786-0 renal
[2] = test system: A498 renal
[3] = test system: A549 NSCLC
[4] = test system: ACHN renal
[5] = test system: BT-549 breast
[6] = test system: CCRF-CEM leukemia
[7] = test system: COLO 205 colon
[8] = test system: DU-145 prostate
[9] = test system: EKVX NSCLC
[10] = test system: HCC-2998 colon
[11] = test system: HCT-116 colon
[12] = test system: HCT-15 colon
[13] = test system: HL-60(TB) leukemia
[14] = test system: HOP-62 NSCLC
[15] = test system: HOP-92 NSCLC
[16] = test system: HS 578T breast
[17] = test system: HT29 colon
[18] = test system: IGROV1 ovarian
[19] = test system: K-562 leukemia
[20] = test system: KM12 colon
[21] = test system: LOX IMVI melanoma
[22] = test system: M14 melanoma
[23] = test system: MALME-3M melanoma
[24] = test system: MCF7 breast
[25] = test system: MDA-MB-231 breast
[26] = test system: MDA-MB-435
[27] = test system: MOLT-4 leukemia
[28] = test system: NCI-H226 lung
[29] = test system: NCI-H23 lung
[30] = test system: NCI-H460 lung
[31] = test system: NCI-H522 lung
[32] = test system: NCI/ADR-RES ovarian
[33] = test system: OVCAR-3 ovarian
[34] = test system: OVCAR-4 ovarian
[35] = test system: OVCAR-8 ovarian
[36] = test system: PC-3 prostate
[37] = test system: RPMI-8226 leukemia
[38] = test system: RXF 393 renal
[39] = test system: SF-268 CNS
[40] = test system: SF-295 CNS
[41] = test system: SF-539 CNS
[42] = test system: SK-MEL-28 melanoma
[43] = test system: SK-OV-3 ovarian
[44] = test system: SN12C renal
[45] = test system: SNB-75 CNS
[46] = test system: SR leukemia
[47] = test system: SW-620 colon
[48] = test system: T-47D breast
[49] = test system: TK-10 renal
[50] = test system: U251 CNS
[51] = test system: UACC-257 melanoma
[52] = test system: UACC-62 melanoma
[53] = test system: CAKI-1 renal
[54] = test system: OVCAR-5 ovarian
[55] = test system: SK-MEL-2 melanoma
[56] = test system: SK-MEL-5 melanoma
[57] = test system: SNB-19 CNS
[58] = test system: UO-31 renal

`[N-]=[N+]=Nc1cccc(-c2n[nH]c(Cl)cc2=O)c1` gave a TGI [1] greater than 100 µM, a TGI [2] greater than 100 µM and a TGI [3] greater than 100 µM. The TGI [4] was greater than 100 µM, the TGI [5] was greater than 100 µM and the TGI [6] was greater than 100 µM. For the same compound, the TGI [7] was greater than 100 µM, the TGI [8] was greater than 100 µM and the TGI [9] was greater than 100 µM. For the same compound, the TGI [10] was greater than 100 µM, the TGI [11] was greater than 100 µM and the TGI [12] was greater than 100 µM. The TGI [13] was greater than 100 µM, the TGI [14] was greater than 100 µM and the TGI [15] was greater than 100 µM. It also gave a TGI [16] greater than 100 µM, a TGI [17] greater than 100 µM and a TGI [18] greater than 100 µM. For the same compound, the TGI [19] was greater than 100 µM, the TGI [20] was greater than 100 µM and the TGI [21] was greater than 100 µM. The TGI [22] was greater than 100 µM, the TGI [23] was greater than 100 µM and the TGI [24] was greater than 100 µM. For the same compound, the TGI [25] was greater than 100 µM, the TGI [26] was greater than 100 µM and the TGI [27] was greater than 100 µM. The TGI [28] was greater than 100 µM, the TGI [29] was greater than 100 µM and the TGI [30] was greater than 100 µM. For the same compound, the TGI [31] was greater than 100 µM, the TGI [32] was greater than 100 µM and the TGI [33] was greater than 100 µM. It also gave a TGI [34] greater than 100 µM, a TGI [35] greater than 100 µM and a TGI [36] greater than 100 µM. For the same compound, the TGI [37] was greater than 100 µM, the TGI [38] was greater than 100 µM and the TGI [39] was greater than 100 µM. For the same compound, the TGI [40] was greater than 100 µM, the TGI [41] was greater than 100 µM and the TGI [42] was greater than 100 µM. The TGI [43] was greater than 100 µM, the TGI [44] was greater than 100 µM and the TGI [45] was greater than 100 µM. The TGI [46] was greater than 100 µM, the TGI [47] was greater than 100 µM and the TGI [48] was greater than 100 µM. For the same compound, the TGI [49] was greater than 100 µM, the TGI [50] was greater than 100 µM and the TGI [51] was greater than 100 µM. The TGI [52] was greater than 100 µM.
Compound `COc1cc2nccc(Oc3ccc(NC(=O)C4(C(=O)Nc5ccc(F)cc5)CC4)cc3)c2cc1OC(=O)c1ccc(N)cc1` has a GI50 [1] of 1.81 µM, a TGI [1] of 4.45 µM and a GI50 [2] of 2.03 µM. It also gave a TGI [2] of 4.53 µM, a GI50 [3] of 3.11 µM and a TGI [3] greater than 100 µM. The GI50 [4] was 3.73 µM, the TGI [4] was greater than 100 µM and the GI50 [5] was 2.88 µM. For the same compound, the TGI [5] was greater than 100 µM, the GI50 [53] was 2.68 µM and the TGI [53] was greater than 100 µM. It also gave a GI50 [6] of 2.6 µM, a TGI [6] greater than 100 µM and a GI50 [8] of 3.48 µM. For the same compound, the TGI [8] was greater than 100 µM, the GI50 [9] was 5.31 µM and the TGI [9] was greater than 100 µM. For the same compound, the GI50 [10] was 3.88 µM, the TGI [10] was greater than 100 µM and the GI50 [11] was 3.08 µM. It also gave a TGI [11] greater than 100 µM, a GI50 [12] of 2.17 µM and a TGI [12] greater than 100 µM. The GI50 [15] was 0.2 µM, the TGI [15] was 2.42 µM and the GI50 [16] was 0.29 µM. For the same compound, the TGI [16] was 2.07 µM, the GI50 [18] was 6.92 µM and the TGI [18] was greater than 100 µM. For the same compound, the GI50 [19] was 1.09 µM, the TGI [19] was 4.91 µM and the GI50 [20] was 0.0936 µM. The TGI [20] was greater than 100 µM, the GI50 [21] was 1.92 µM and the TGI [21] was 5.31 µM. For the same compound, the GI50 [22] was 2.79 µM, the TGI [22] was greater than 100 µM and the GI50 [23] was 2.47 µM. For the same compound, the TGI [23] was greater than 100 µM, the GI50 [24] was 1.72 µM and the TGI [24] was greater than 100 µM. For the same compound, the GI50 [25] was 1.98 µM, the TGI [25] was 6.53 µM and the GI50 [26] was 2.18 µM. It also gave a TGI [26] greater than 100 µM, a GI50 [28] of 3.11 µM and a TGI [28] greater than 100 µM. For the same compound, the GI50 [29] was 1.98 µM, the TGI [29] was greater than 100 µM and the GI50 [30] was 3.49 µM. For the same compound, the TGI [30] was 54.2 µM, the GI50 [31] was 2.65 µM and the TGI [31] was greater than 100 µM. The GI50 [32] was 3.74 µM, the TGI [32] was greater than 100 µM and the GI50 [33] was 4.36 µM. It also gave a TGI [33] greater than 100 µM, a GI50 [54] of 2.23 µM and a TGI [54] greater than 100 µM. For the same compound, the GI50 [35] was 5.77 µM, the TGI [35] was greater than 100 µM and the GI50 [36] was 2.5 µM. The TGI [36] was greater than 100 µM, the GI50 [37] was 2.66 µM and the TGI [37] was greater than 100 µM. The GI50 [38] was 0.314 µM, the TGI [38] was 1.99 µM and the GI50 [39] was 1.63 µM. It also gave a TGI [39] greater than 100 µM, a GI50 [40] of 0.262 µM and a TGI [40] of 1.47 µM. For the same compound, the GI50 [41] was 0.246 µM, the TGI [41] was 2.04 µM and the GI50 [55] was 2.38 µM. The TGI [55] was 14.5 µM, the GI50 [42] was 1.34 µM and the TGI [42] was 5.16 µM. The GI50 [56] was 4.46 µM, the TGI [56] was greater than 100 µM and the GI50 [43] was 2.95 µM. For the same compound, the TGI [43] was 8.05 µM, the GI50 [44] was 1.39 µM and the TGI [44] was greater than 100 µM. For the same compound, the GI50 [57] was 3.05 µM, the TGI [57] was greater than 100 µM and the GI50 [45] was 0.199 µM. For the same compound, the TGI [45] was 1.39 µM, the GI50 [46] was 0.626 µM and the TGI [46] was greater than 100 µM. For the same compound, the GI50 [47] was 2.92 µM, the TGI [47] was greater than 100 µM and the GI50 [48] was 2.92 µM. The TGI [48] was greater than 100 µM, the GI50 [49] was 6.62 µM and the TGI [49] was greater than 100 µM. For the same compound, the GI50 [51] was 4.91 µM, the TGI [51] was greater than 100 µM and the GI50 [52] was 2.85 µM. The TGI [52] was greater than 100 µM, the GI50 [58] was 1.58 µM and the TGI [58] was 6.58 µM.
